Experimental data published in ChEMBL document CHEMBL3885861, “Open TG-GATES”.

Species on record: Rattus norvegicus
Test: Open TG-GATES - Regimen: Single
Format: toxicity, organism-based, Sprague-Dawley
Parameters: regimen Single, gender Male, age 6 weeks
Conditions: in vivo, po, 0 mg/kg, route gavage, dose level Control; for APTT / Bas / Eos / Fbg / Hb / Ht / Lym / MCH / MCHC / MCV / Mono / Neu / PT / Plat / RBC / Ret / WBC: tissue Blood; for KIDNEY_L / KIDNEY_R / KIDNEY_TOTAL: tissue Kidney; for LIVER: tissue Liver; for A/G / ALP / ALT / AST / BUN / CRE / Ca / Cl / DBIL / GLC / IP / K / LDH / Na / PL / RALB / TBIL / TC / TG / TP / gamma-GTP: tissue Plasma

With `COc1ccc(O)c(C(C)(C)C)c1.COc1ccc(O)cc1C(C)(C)C` [BUTYLATED HYDROXYANISOLE] the TERMINAL_BW (3 h) was 208.5 g, the APTT (3 h) was 13.3 s and the Bas (3 h) was 0.2%. It also gave an Eos (3 h) of 0.7%, a Fbg (3 h) of 265.2 mg/dL and a Hb (3 h) of 13.1 g/dL. The Ht (3 h) was 38.4%, the Lym (3 h) was 74% and the MCH (3 h) was 21.2 pg. It also gave an MCHC (3 h) of 34%, an MCV (3 h) of 62.4 fL and a Mono (3 h) of 3%. For the same compound, the Neu (3 h) was 21.1%, the PT (3 h) was 11.5 s and the Plat (3 h) was 132.5 x10_4/uL. It also gave an RBC (3 h) of 616.8 x10_4/ul, a Ret (3 h) of 7.8% and a WBC (3 h) of 93.2 x10_2/uL. It also gave a KIDNEY_L (3 h) of 0.9 g, a KIDNEY_R (3 h) of 0.8 g and a KIDNEY_TOTAL (3 h) of 1.7 g. It also gave an LIVER (3 h) of 9 g, an A/G (3 h) of 0.8 and an ALP (3 h) of 1750 IU/L. The ALT (3 h) was 41.4 IU/L, the AST (3 h) was 76.4 IU/L and the BUN (3 h) was 10.6 mg/dL. The CRE (3 h) was 0.2 mg/dL, the Ca (3 h) was 11.2 mg/dL and the Cl (3 h) was 106.4 meq/L. The DBIL (3 h) was 0.03 mg/dL, the GLC (3 h) was 171.8 mg/dL and the IP (3 h) was 8.9 mg/dL. The K (3 h) was 4.4 meq/L, the LDH (3 h) was 72.2 IU/L and the Na (3 h) was 141 meq/L. For the same compound, the PL (3 h) was 153.8 mg/dL, the RALB (3 h) was 2.6 g/dL and the TBIL (3 h) was 0.076 mg/dL. For the same compound, the TC (3 h) was 80.8 mg/dL, the TG (3 h) was 84.6 mg/dL and the TP (3 h) was 5.6 g/dL. The gamma-GTP (3 h) was 1.2 IU/L, the TERMINAL_BW (6 h) was 202.6 g and the APTT (6 h) was 16.8 s. The Bas (6 h) was 0.2%, the Eos (6 h) was 0.7% and the Fbg (6 h) was 263 mg/dL. For the same compound, the Hb (6 h) was 13.3 g/dL, the Ht (6 h) was 39% and the Lym (6 h) was 75.4%. It also gave an MCH (6 h) of 21.3 pg, an MCHC (6 h) of 34.2% and an MCV (6 h) of 62.2 fL. The Mono (6 h) was 2%, the Neu (6 h) was 20.9% and the PT (6 h) was 12.6 s. For the same compound, the Plat (6 h) was 145.4 x10_4/uL, the RBC (6 h) was 626.6 x10_4/ul and the Ret (6 h) was 7.6%. For the same compound, the WBC (6 h) was 97.7 x10_2/uL, the KIDNEY_L (6 h) was 0.9 g and the KIDNEY_R (6 h) was 0.9 g. For the same compound, the KIDNEY_TOTAL (6 h) was 1.8 g, the LIVER (6 h) was 8.1 g and the A/G (6 h) was 0.8. It also gave an ALP (6 h) of 1507 IU/L, an ALT (6 h) of 33.8 IU/L and an AST (6 h) of 67.8 IU/L. For the same compound, the BUN (6 h) was 7.2 mg/dL, the CRE (6 h) was 0.2 mg/dL and the Ca (6 h) was 10.9 mg/dL. For the same compound, the Cl (6 h) was 109 meq/L, the DBIL (6 h) was 0.026 mg/dL and the GLC (6 h) was 179 mg/dL. For the same compound, the IP (6 h) was 10 mg/dL, the K (6 h) was 4.1 meq/L and the LDH (6 h) was 54.8 IU/L. The Na (6 h) was 142.6 meq/L, the PL (6 h) was 127.8 mg/dL and the RALB (6 h) was 2.6 g/dL. For the same compound, the TBIL (6 h) was 0.074 mg/dL, the TC (6 h) was 73.8 mg/dL and the TG (6 h) was 58.2 mg/dL. The TP (6 h) was 5.7 g/dL, the gamma-GTP (6 h) was 1.2 IU/L and the TERMINAL_BW (9 h) was 203.6 g. It also gave an APTT (9 h) of 15.7 s, a Bas (9 h) of 0.2% and an Eos (9 h) of 0.8%. It also gave a Fbg (9 h) of 263 mg/dL, a Hb (9 h) of 12.9 g/dL and a Ht (9 h) of 37.6%. It also gave a Lym (9 h) of 74.4%, an MCH (9 h) of 21.1 pg and an MCHC (9 h) of 34.2%. The MCV (9 h) was 61.5 fL, the Mono (9 h) was 2.8% and the Neu (9 h) was 21%. For the same compound, the PT (9 h) was 12.8 s, the Plat (9 h) was 142.3 x10_4/uL and the RBC (9 h) was 612 x10_4/ul. For the same compound, the Ret (9 h) was 8.4%, the WBC (9 h) was 68.2 x10_2/uL and the KIDNEY_L (9 h) was 0.9 g. It also gave a KIDNEY_R (9 h) of 0.8 g, a KIDNEY_TOTAL (9 h) of 1.7 g and an LIVER (9 h) of 7.6 g. The A/G (9 h) was 0.9, the ALP (9 h) was 1620.2 IU/L and the ALT (9 h) was 30.8 IU/L. It also gave an AST (9 h) of 66.6 IU/L, a BUN (9 h) of 8.8 mg/dL and a CRE (9 h) of 0.2 mg/dL. For the same compound, the Ca (9 h) was 10.9 mg/dL, the Cl (9 h) was 106.2 meq/L and the DBIL (9 h) was 0.022 mg/dL. The GLC (9 h) was 177.4 mg/dL, the IP (9 h) was 10.2 mg/dL and the K (9 h) was 4.1 meq/L. The LDH (9 h) was 61.6 IU/L, the Na (9 h) was 141.8 meq/L and the PL (9 h) was 128.2 mg/dL. The RALB (9 h) was 2.6 g/dL, the TBIL (9 h) was 0.088 mg/dL and the TC (9 h) was 76.8 mg/dL. It also gave a TG (9 h) of 39.4 mg/dL, a TP (9 h) of 5.6 g/dL and a gamma-GTP (9 h) of 1.2 IU/L. It also gave a TERMINAL_BW (24 h) of 217.3 g, an APTT (24 h) of 15.1 s and a Bas (24 h) of 0.2%. It also gave an Eos (24 h) of 0.7%, a Fbg (24 h) of 275.6 mg/dL and a Hb (24 h) of 13 g/dL. It also gave a Ht (24 h) of 38%, a Lym (24 h) of 77% and an MCH (24 h) of 20.9 pg. For the same compound, the MCHC (24 h) was 34.2%, the MCV (24 h) was 61.2 fL and the Mono (24 h) was 2.3%. The Neu (24 h) was 19.1%, the PT (24 h) was 12.2 s and the Plat (24 h) was 136.6 x10_4/uL. For the same compound, the RBC (24 h) was 620.2 x10_4/ul, the Ret (24 h) was 7% and the WBC (24 h) was 82.5 x10_2/uL. It also gave a KIDNEY_L (24 h) of 0.9 g, a KIDNEY_R (24 h) of 0.9 g and a KIDNEY_TOTAL (24 h) of 1.8 g. For the same compound, the LIVER (24 h) was 9.7 g, the A/G (24 h) was 0.8 and the ALP (24 h) was 1843.2 IU/L. It also gave an ALT (24 h) of 40 IU/L, an AST (24 h) of 70.8 IU/L and a BUN (24 h) of 14.6 mg/dL. The CRE (24 h) was 0.2 mg/dL, the Ca (24 h) was 11.2 mg/dL and the Cl (24 h) was 106.4 meq/L. The DBIL (24 h) was 0.018 mg/dL, the GLC (24 h) was 173 mg/dL and the IP (24 h) was 7.7 mg/dL. The K (24 h) was 4.3 meq/L, the LDH (24 h) was 63.2 IU/L and the Na (24 h) was 143.6 meq/L. The PL (24 h) was 136.6 mg/dL, the RALB (24 h) was 2.6 g/dL and the TBIL (24 h) was 0.066 mg/dL. For the same compound, the TC (24 h) was 77.6 mg/dL, the TG (24 h) was 75.8 mg/dL and the TP (24 h) was 5.7 g/dL. For the same compound, the gamma-GTP (24 h) was 1 IU/L.
